Broadly, the EC50 is the midpoint of the concentration-response curve.

The test system of experiment [1] is A2 receptor. The conditions noted are these: relative to NECA; cited from earlier work.
In experiment [2] the test system is A1 and A2 receptors. The conditions noted are these: reported developments; cited from earlier work.
In experiment [3] the test system is myocardial infarct in Sprague-Dawley rats. Kind of experiment: Cardioprotective activity in rat: myocardial infarct size after coronary occlusion/reperfusion. The conditions noted are these: control 63 ± 5, preconditioned 15 ± 8. The class given is in vivo. As for the experimental part:
Adult Sprague-Dawley rats are anesthetized with Inactin (100 mg/kg i.p.). The trachea is intubated and positive pressure ventilation is provided via a small animal respirator. Catheters are placed in the femoral vein and artery for administration of compounds of the present invention to be tested, and measurement of blood pressure, respectively. An incision is made on the left side of the thorax over the pectoral muscles, and the muscles are retracted to expose the fourth intercostal space. The chest cavity is opened and the heart is exposed. A length of 4-0 proline suture is placed through the ventricular wall near the left main coronary artery and is used to interrupt blood flow through the cornary artery by tightening a slip-knot. A pulsed-Doppler flow probe (a device which measures blood flow) is placed on the surface of the heart to confirm that the coronary artery has been porperly identified. […]
For preconditioning the heart, the coronary artery is occluded (flow is interrupted) for a period of two minutes. […] Infarct size is determined by slicing the heart from apex to base into four to five slices 1-2 mm thick. […] The tissue slices are placed in a video image analysis system and infarct size is determined by planimetry. The effect of the compound of the present invention tested on myocardial infarct size is assessed and used to quantirate the extent of cardioprotective activity. […]

In experiment [4] the test system is rat adipocytes. Kind of experiment: In vitro lipolysis assay in rat adipocytes (glycerol production). The class given is cell-based. Conditions: Rattus norvegicus, Adipocyte, read-out: EC50 (50% inhibition of glycerol production); unit nM in cell.

On to `Nc1nc(Nc2ccccc2)nc2c1ncn2[C@@H]1O[C@H](CO)[C@@H](O)[C@H]1O` [CV-1808], for which, in experiment [1], the “fold less potent than NECA in affinity for the A2 receptor” value is 10 fold. Also, the A2/A1 ratio in experiment [2] was 0.19.

Regarding `CCNC(=O)[C@H]1C[C@@H](n2cnc3c(N[C@H](CC)Cc4sccc4Cl)ccnc32)[C@H](O)[C@@H]1O` (single isomer, unassigned) [Example 39, [1S-[1α,2β,3β,4α(S*)]]-4-[7-[[2-(3-chloro-2-thienyl)-1-ethylethyl]amino]-3 H-imidazo[4,5-b]pyridin-3-yl]-N-ethyl-2,3-dihydroxycyclopentane-carboxamide], the “% Risk Area Infarcted” value is 18 ± 5% in experiment [3] (Compound High: i.v. bolus 10 μg/kg, then 1 μg/kg/minute from 30 minutes prior to occlusion to 2 hours after reperfusion) and 23 ± 9% in experiment [3] (Compound Low: i.v. bolus 1 μg/kg, then 0.1 μg/kg/minute for 30 minutes prior to occlusion). Further, the EC50 in experiment [4] was 5.4 nM.

The values above are taken from patent publication US5652366A, “DI (1R)-(-)camphosulfonic acid) salt, preparation thereof and use thereof” (Rhone-Poulenc Rorer Pharmaceuticals Inc., priority 1995, dated 1997).
